Assay results: paper PMC7466261, “In Silico and In Vitro Analysis of Multifunctionality of Animal Food-Derived Peptides” (Foods, 2020)
Where two headings read alike, the source gives them in different places. Where a SMILES comes first, the peptide text is derived from it. Where no end group is shown, it is not given here.

Experiments:
[1] = target: T1, angiotensin-converting enzyme (ACE) (Oryctolagus cuniculus, UniProt P12822); conditions: read-out: ACE inhibitory IC50, cited from earlier work
T1 sequence (P12822 34-1310): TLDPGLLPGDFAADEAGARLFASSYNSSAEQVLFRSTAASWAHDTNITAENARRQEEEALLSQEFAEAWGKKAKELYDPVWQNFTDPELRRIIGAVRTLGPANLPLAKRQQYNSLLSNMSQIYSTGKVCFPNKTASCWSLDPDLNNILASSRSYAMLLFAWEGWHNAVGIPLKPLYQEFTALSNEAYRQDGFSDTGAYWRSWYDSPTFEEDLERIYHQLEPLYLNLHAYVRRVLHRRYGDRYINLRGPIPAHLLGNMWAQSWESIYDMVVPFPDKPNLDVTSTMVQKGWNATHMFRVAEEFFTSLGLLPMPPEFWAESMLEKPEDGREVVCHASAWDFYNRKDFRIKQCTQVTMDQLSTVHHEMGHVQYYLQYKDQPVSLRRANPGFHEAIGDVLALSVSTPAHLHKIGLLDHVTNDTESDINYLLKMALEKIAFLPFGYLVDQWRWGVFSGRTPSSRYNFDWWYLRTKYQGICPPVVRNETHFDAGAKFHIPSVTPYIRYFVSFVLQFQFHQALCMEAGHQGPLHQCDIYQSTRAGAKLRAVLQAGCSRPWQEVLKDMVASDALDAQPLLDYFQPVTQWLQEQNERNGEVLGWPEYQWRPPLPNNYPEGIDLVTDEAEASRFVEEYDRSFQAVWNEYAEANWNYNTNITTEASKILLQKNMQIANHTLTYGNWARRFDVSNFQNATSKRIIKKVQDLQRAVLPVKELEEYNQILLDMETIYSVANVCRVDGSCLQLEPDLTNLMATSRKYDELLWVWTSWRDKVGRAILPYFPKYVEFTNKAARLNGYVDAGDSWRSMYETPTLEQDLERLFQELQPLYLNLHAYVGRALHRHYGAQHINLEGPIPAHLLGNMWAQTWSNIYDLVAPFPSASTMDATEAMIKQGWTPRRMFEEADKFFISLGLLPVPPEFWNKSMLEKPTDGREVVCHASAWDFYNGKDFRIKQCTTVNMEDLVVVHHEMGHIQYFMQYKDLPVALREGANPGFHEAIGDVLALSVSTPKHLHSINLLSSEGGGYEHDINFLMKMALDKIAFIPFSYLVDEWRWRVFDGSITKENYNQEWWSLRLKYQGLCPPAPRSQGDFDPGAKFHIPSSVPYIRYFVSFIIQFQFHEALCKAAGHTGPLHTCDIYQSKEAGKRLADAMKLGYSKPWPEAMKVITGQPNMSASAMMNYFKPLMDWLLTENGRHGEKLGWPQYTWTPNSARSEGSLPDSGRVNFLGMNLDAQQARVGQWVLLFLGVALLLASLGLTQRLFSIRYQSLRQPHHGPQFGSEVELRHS

[2] = Oxygen radical absorbance capacity (ORAC)-FL assay; design: key to Antioxidant Activity ORAC, symbol: **: Antioxidant activity not detected at the highest peptide concentration analyzed (0.20 µmol); conditions: for Antioxidant Activity ORAC: mean ± SD
Method: An oxygen radical absorbance capacity (ORAC)-FL assay was used based on the protocol previously optimized. The reaction was performed at 37 °C in 75 mM phosphate buffer (pH 7.4). The final assay mixture volume was 200 µL, containing 70 nM FL, 12 mM AAPH, and antioxidant [(Trolox, 1–8 µM) or sample (at different concentrations)]. Fluorescence was measured during 137 min in a FLUOstar OPTIMA plate reader (BMG Labtech) with 485 nm excitation and 520 nm emission filters. The equipment was controlled by the FLUOstar Control ver. 1.32 R2 software for fluorescence measurement. Samples were analyzed in triplicate. The final ORAC-FL value was expressed as μmol Trolox equivalents (TE) per μmol peptide.

[3] = target: T1, angiotensin-converting enzyme (ACE); test: ACE-inhibitory activity, fluorescence assay with Abz-Gly-Phe(NO2)-Pro; assay type: biochemical
Method: ACE (1 U/mL) was diluted (0.04 U/mL) in 150 mM Tris buffer containing 0.1 μM ZnCl2 (pH 8.3). Forty microliters of sample (or MilliQ water for blank and control) were added to a black multi-well plate (Porvair, Leatherhead, UK). Then, 40 μL of ACE were added, and the reaction started after the addition of 160 μL of the substrate. The plate was incubated at 37 °C for 30 min, and the fluorescence was measured in a FLUOstar OPTIMA plate reader (BMG Labtechnologies GmbH, Offenburg, Germany) with 320 nm excitation and 420 nm emission filters.

[4] = MBPDB; cited from earlier work
[5] = ABTS assay (TEAC); conditions: mean ± SD
Method: Antioxidant activity was measured using a previously optimized method with some modifications. A mixture of 7 mM ABTS stock solution and 2.45 mM potassium persulfate was kept in the dark at room temperature for 12-16 h to form the ABTS radical cation (ABTS^•+). The ABTS^•+ solution was diluted in 5 mM of phosphate buffer solution (PBS) (pH 7.4) to an absorbance of 0.70 ± 0.02 at 734 nm at 30 °C. Two mL of diluted ABTS^•+ solution were mixed with 20 μL of sample or Trolox (0–0.015 μmol), and the absorbance was recorded at 734 nm after 10 min incubation at 30 °C. The Trolox equivalent antioxidant capacity (TEAC) value was expressed as μmol TE per μmol peptide. Each sample was analyzed in triplicate.

[6] = target: opioid, (3H)-naloxone binding; conditions: database value; read-out: Opioid agonist IC50, inhibition of (3H)-naloxone binding; cited from earlier work
[7] = test system: Caco-2 cells; test: Cell viability (MTT), direct effects, Caco-2; assay type: cell-based, human; conditions: Caco-2, 1–100 µM, 24 h
Method: (§1) Cell viability was determined using the MTT assay. […] Samples were analyzed in triplicate.

[8] = test system: RAW264.7 cells; test: Cell viability (MTT), direct effects, RAW264.7; assay type: cell-based, mouse; conditions: RAW264.7, 1–100 µM, 24 h
Method: as §1

[9] = test system: Caco-2 cells; test: Intracellular ROS (DCFH), t-BOOH-stressed Caco-2; assay type: cell-based, human; conditions: stressed Caco-2 (1 mM t-BOOH)
Method: The intracellular ROS levels were detected using the ROS-sensitive fluorescent dye, DCFH, as previously described. Caco-2 cells were plated in 48-well plates (density of 4.75 × 10^4 cells/well) and RAW264.7 cells in 24-well plates (density of 2.0 × 10^5 cells/well) and incubated for 7 days and 14 h, respectively. After this time, cells were treated with peptides as previously described for 24 h. Then, DCFH was dissolved in HBSS and added to cells at a final concentration of 5 µM solution. Cells were incubated for 30 min at 37 °C. The probe was removed, and cells were incubated with PBS (direct effects) or t-BOOH (protective effects) for 60 min, measuring the fluorescence after 60 min in a FLUOstar OPTIMA plate reader (BMG Labtech) with 485 nm excitation and 520 nm emission filters. The results were expressed as percentage of the control, which was considered as 100%. The assay was run in triplicate.

[10] = mean ± SD, read-out: ACE Inhibitory Activity (IC50-µM)
[11] = highest peptide concentration analyzed 1000 µM, read-out: ACE Inhibitory Activity (IC50-µM), symbol

Compound: CC(C)C[C@H](N)C(=O)NCC(=O)N[C@@H](Cc1ccc(O)cc1)C(=O)O [LGY] (H-Leu-Gly-Tyr-OH; N-terminus and C-terminus assumed)
- IC50 ([1]; database value): 21.5 µM
- Antioxidant Activity ORAC [2]: 2.00 ± 0.09 µmol TE/µmol peptide
- IC50 [3, 10]: 26.1 ± 0.83 µM
- ORAC [4]: ORAC = 2.31 µmol TE/µmol peptide **
- Antioxidant Activity TEAC [5]: 1.54 ± 0.01 µmol TE/µmol peptide

Compound: CC(C)C[C@H](NC(=O)[C@@H](N)CC(C)C)C(=O)N[C@@H](Cc1ccccc1)C(=O)O [LLF] (H-Leu-Leu-Phe-OH; N-terminus and C-terminus assumed)
- IC50 ([1]; BIOPEP-UWM): 79.8 µM
- Antioxidant Activity ORAC, symbol ([2]; highest peptide concentration analyzed 0.20 µmol): **
- IC50 [3, 10]: 94.8 ± 2.97 µM

Compound: CC(C)C[C@H](NC(=O)[C@H](Cc1ccc(O)cc1)NC(=O)[C@@H](N)CCCNC(=N)N)C(=O)NCC(=O)O [RYLG] (H-RYLG-OH; N-terminus and C-terminus assumed)
- IC50 ([1]; database value): 225 µM
- Antioxidant Activity ORAC [2]: 1.70 ± 0.11 µmol TE/µmol peptide
- IC50 [3, 11]: > 1000 µM
- ORAC [4]: ORAC = 1.67 µmol TE/µmol peptide **
- Antioxidant Activity TEAC [5]: 2.91 ± 0.21 µmol TE/µmol peptide

Compound: CC(C)C[C@H](NC(=O)[C@H](Cc1ccc(O)cc1)NC(=O)[C@@H](N)CCCNC(=N)N)C(=O)O [RYL] (H-Arg-Tyr-Leu-OH; N-terminus and C-terminus assumed)
- IC50 ([1]; BIOPEP-UWM): 3.31 µM
- IC50 ([1]; database value): 107 µM
- Antioxidant Activity ORAC [2]: 1.72 ± 0.14 µmol TE/µmol peptide
- IC50 [3, 11]: > 1000 µM
- ORAC [4]: ORAC = 1.75 µmol TE/µmol peptide **
- Antioxidant Activity TEAC [5]: 1.90 ± 0.03 µmol TE/µmol peptide

Compound: CC(C)C[C@H](NC(=O)[C@H](Cc1ccccc1)NC(=O)CNC(=O)[C@@H](N)Cc1ccc(O)cc1)C(=O)O [YGFL]
- Antioxidant Activity ORAC [2]: 1.42 ± 0.04 µmol TE/µmol peptide
- IC50 [3, 10]: 292.5 ± 0.83 µM
- Antioxidant Activity TEAC [5]: 2.12 ± 0.03 µmol TE/µmol peptide

Compound: CC(C)C[C@H](NC(=O)CNC(=O)[C@@H](N)Cc1ccc(O)cc1)C(=O)N[C@@H](Cc1ccccc1)C(=O)O [YGLF] (H-YGLF-OH; N-terminus and C-terminus assumed)
- IC50 ([1]; BIOPEP-UWM): 733 µM
- Antioxidant Activity ORAC [2]: 0.89 ± 0.01 µmol TE/µmol peptide
- IC50 [3, 11]: > 1000 µM
- IC50 [6]: 300 µM
- Antioxidant Activity TEAC [5]: 2.08 ± 0.06 µmol TE/µmol peptide

Compound: CC(C)C[C@H](NC(=O)[C@@H](N)Cc1ccc(O)cc1)C(=O)NCC(=O)N[C@@H](Cc1ccc(O)cc1)C(=O)O [YLGY] (H-YLGY-OH; N-terminus and C-terminus assumed)
- IC50 ([1]; database value): 41.9 µM
- Antioxidant Activity ORAC [2]: 2.96 ± 0.20 µmol TE/µmol peptide
- IC50 [3, 10]: 9.87 ± 0.31 µM
- ORAC [4]: ORAC = 1.46 µmol TE/µmol peptide **
- Antioxidant Activity TEAC [5]: 2.14 ± 0.11 µmol TE/µmol peptide

Compound: CC(C)C[C@H](NC(=O)[C@@H](N)Cc1ccc(O)cc1)C(=O)NCC(=O)O [YLG] (H-Tyr-Leu-Gly-OH; N-terminus and C-terminus assumed)
- Antioxidant Activity ORAC [2]: 0.93 ± 0.08 µmol TE/µmol peptide
- IC50 [3, 11]: > 1000 µM
- ORAC [4]: ORAC = 1.38 µmol TE/µmol peptide **
- Antioxidant Activity TEAC [5]: 1.40 ± 0.04 µmol TE/µmol peptide

Compound: N[C@@H](Cc1ccc(O)cc1)C(=O)N1CCC[C@H]1C(=O)N[C@@H](Cc1c[nH]c2ccccc12)C(=O)O [YPW] (H-Tyr-Pro-Trp-OH; N-terminus and C-terminus assumed)
- IC50 [3, 11]: > 1000 µM

Compound: AYFYPE [AYFYPE]
- IC50 ([1]; BIOPEP-UWM and MBPDB): 106 µM
- IC50 ([1]; database value): 261 µM
- IC50 [3, 10]: 774 ± 38.2 µM

Compound: FYPEL [FYPEL]
- IC50 ([1]; database value): 80.6 µM
- IC50 [3, 10]: 62 ± 6.27 µM

Compound: HLPLP [reference compound]
- IC50 ([1]; literature value): 41 µM

Compound: IPP [reference compound]
- IC50 ([1]; literature value): 5 µM

Compound: RYLGY [RYLGY]
- IC50 [3, 10]: 3.08 ± 0.11 µM

Compound: RYLGYLE [RYLGYLE]
- Cell viability, direct effect [7]: did not evoke changes in cell viability
- IC50 [3, 11]: > 1000 µM
- Cell viability, direct effect [8]: did not evoke changes in cell viability

Compound: VPP [reference compound]
- IC50 ([1]; literature value): 9 µM

Compound: YFYPEL [YFYPEL]
- Cell viability, direct effect [7]: did not evoke changes in cell viability
- IC50 [3, 10]: 8.82 ± 0.58 µM
- ROS levels (% control) ([9]; 1 µM peptide): 168.88 ± 17.80%
- Cell viability, direct effect [8]: did not evoke changes in cell viability

Compound: YGFLP [YGFLP]
- IC50 ([1]; literature value): 260 µM
- IC50 [3, 10]: 272.39 ± 0.25 µM

Compound: YLGYLE [YLGYLE]
- Cell viability, direct effect [7]: did not evoke changes in cell viability
- IC50 [3, 10]: 85.8 ± 4.66 µM
- ROS levels (% control) ([9]; 1 µM peptide): 175.06 ± 11.13%
- ROS levels (% control) ([9]; 10 µM peptide): 174.44 ± 11.60%
- Cell viability, direct effect [8]: did not evoke changes in cell viability

Compound: YPFPGPI [YPFPGPI]
- IC50 ([1]; MBPDB): 500 µM
- IC50 [3, 10]: 686 ± 103 µM

Compound: YPFPGPIP
- IC50 [3, 10]: 224 ± 43.9 µM

Compound: YPFVE [YPFVE]
- IC50 [3, 11]: > 1000 µM

Compound: YPFVEP [YPFVEP]
- IC50 [3, 10]: 7.48 ± 0.03 µM

Compound: YPVEPF [YPVEPF]
- IC50 [3, 11]: > 1000 µM
